Reference: ChEMBL document CHEMBL3585310, “Synthesis and evaluation of artesunateindoloquinoline hybrids as antimalarial drug candidates” (Medchemcomm, 2014)

How the values were obtained:
[1] = tested on: Plasmodium falciparum; test: Antiplasmodial activity against chloroquine-sensitive Plasmodium falciparum NF54; format: functional, organism-based
[2] = biological target: Heme; test: Binding affinity to heme assessed as inhibition of beta-hematin formation by NP40 detergent based assay
[3] = tested on: L6; test: Cytotoxicity against rat L6 cells; format: cell-based
[4] = Selectivity index, ratio of IC50 for rat L6 cells to IC50 for chloroquine-sensitive Plasmodium falciparum NF54; format: toxicity, cell-based; settings: L6 cells (cytotoxicity) versus Plasmodium falciparum NF54, read-out: Ratio IC50
[5] = tested on: Plasmodium falciparum; test: Resistance index, ratio of IC50 for chloroquine-resistant Plasmodium falciparum K1 to IC50 chloroquine-sensitive Plasmodium falciparum NF54; format: functional
[6] = Selectivity index, ratio of IC50 for rat L6 cells to IC50 for chloroquine-resistant Plasmodium falciparum K1; format: toxicity, cell-based; settings: L6 cells (cytotoxicity) versus Plasmodium falciparum K1, read-out: Ratio IC50
[7] = tested on: Plasmodium falciparum; test: Antiplasmodial activity against chloroquine-resistant Plasmodium falciparum K1; format: functional, organism-based
[8] = tested on: Plasmodium berghei; test: Antimalarial activity against Plasmodium berghei infected in NMRI mouse assessed as survival at 10 mg/kg, ip for 4 consecutive days by FACS analysis; format: functional
[9] = tested on: Plasmodium berghei; test: Antimalarial activity against Plasmodium berghei infected in NMRI mouse at 10 mg/kg, ip for 4 consecutive days by FACS analysis; format: functional

SMILES: C[C@H]1[C@H](OC(=O)CCC(=O)NCCCNc2c3ccccc3nc3c2[nH]c2ccccc23)O[C@@H]2O[C@@]3(C)CC[C@H]4[C@H](C)CC[C@@H]1[C@@]24OO3
- IC50 [1]: 0.0122 µM
- IC50 [2]: 17.1 µM
- IC50 [3]: 2.62 µM
- selectivity ratio [4]: 215

SMILES: COC(=O)c1ccc2c(c1)c(NCCCNC(=O)CCC(=O)O[C@@H]1O[C@@H]3O[C@@]4(C)CC[C@H]5CCC[C@@H]([C@H]1C)[C@]53OO4)c1c3ccccc3nc-1n2C
- IC50 [1]: 0.00288 µM
- Ratio IC50 [5]: 0.35
- IC50 [2]: 29.2 µM
- IC50 [3]: 3.72 µM
- selectivity ratio [6]: 3720
- IC50 [7]: 0.001 µM
- selectivity ratio [4]: 1290

SMILES: C[C@H]1[C@H](OC(=O)CCC(=O)NCC(C)(C)CNc2c3c4ccccc4nc-3n(C)c3ccc(Cl)cc23)O[C@@H]2O[C@@]3(C)CC[C@H]4CCC[C@@H]1[C@]42OO3
- IC50 [1]: 0.0015 µM
- Ratio IC50 [5]: 0.27
- IC50 [2]: 37.8 µM
- IC50 [3]: 1.28 µM
- selectivity ratio [6]: 3130
- IC50 [7]: 0.00041 µM
- selectivity ratio [4]: 856

SMILES: C[C@H]1[C@H](OC(=O)CCC(=O)NCCCNc2c3c4ccccc4nc-3n(C)c3ccccc23)O[C@@H]2O[C@@]3(C)CC[C@H]4CCC[C@@H]1[C@]42OO3
- IC50 [1]: 0.00045 µM
- MSD [8]: 7.7 days
- Ratio IC50 [5]: 0.93
- Activity [9]: 89.6%
- IC50 [2]: 222 µM
- IC50 [3]: 1.53 µM
- selectivity ratio [6]: 3640
- IC50 [7]: 0.00042 µM
- selectivity ratio [4]: 3400

SMILES: COC(=O)c1ccc2c(c1)c(NCC(C)(C)CNC(=O)CCC(=O)O[C@@H]1O[C@@H]3O[C@@]4(C)CC[C@H]5CCC[C@@H]([C@H]1C)[C@]53OO4)c1c3ccccc3nc-1n2C
- IC50 [1]: 0.00317 µM
- Ratio IC50 [5]: 0.36
- IC50 [2]: 25.8 µM
- IC50 [3]: 0.695 µM
- selectivity ratio [6]: 604
- IC50 [7]: 0.00115 µM
- selectivity ratio [4]: 219

SMILES: C[C@H]1[C@H](OC(=O)CCC(=O)NCCCNc2nc3ccccc3c3[nH]c4ccccc4c23)O[C@@H]2O[C@@]3(C)CC[C@H]4[C@H](C)CC[C@@H]1[C@@]24OO3
- IC50 [1]: 0.00167 µM
- Ratio IC50 [5]: 0.4
- IC50 [2]: 15.7 µM
- IC50 [3]: 2.2 µM
- selectivity ratio [6]: 3290
- IC50 [7]: 0.00067 µM
- selectivity ratio [4]: 1320

SMILES: C[C@H]1[C@H](OC(=O)CCC(=O)NCC(C)(C)CNc2c3c4ccccc4nc-3n(C)c3ccc(Br)cc23)O[C@@H]2O[C@@]3(C)CC[C@H]4CCC[C@@H]1[C@]42OO3
- IC50 [1]: 0.00321 µM
- Ratio IC50 [5]: 0.3
- IC50 [2]: 28.9 µM
- IC50 [3]: 0.991 µM
- selectivity ratio [6]: 1040
- IC50 [7]: 0.00095 µM
- selectivity ratio [4]: 309

SMILES: C[C@H]1[C@H](OC(=O)CCC(=O)NCC(C)(C)CNc2c3c4ccccc4nc-3n(C)c3ccccc23)O[C@@H]2O[C@@]3(C)CC[C@H]4CCC[C@@H]1[C@]42OO3
- IC50 [1]: 0.00114 µM
- Ratio IC50 [5]: 0.82
- IC50 [2]: 70.2 µM
- IC50 [3]: 2.96 µM
- selectivity ratio [6]: 3180
- IC50 [7]: 0.00093 µM
- selectivity ratio [4]: 2600

SMILES: C[C@@H]1CC[C@H]2[C@@H](C)C(=O)O[C@@H]3O[C@@]4(C)CC[C@@H]1[C@]32OO4 [ARTEMISININ]
- IC50 [1]: 0.0043 µM
- IC50 [7]: 0.0028 µM

SMILES: NCCCNc1nc2ccccc2c2[nH]c3ccccc3c12
- Ratio IC50 [5]: 6
- IC50 [2]: 627 µM
- selectivity ratio [6]: 7.6
- selectivity ratio [4]: 45.8

SMILES: COC(=O)c1ccc2c(c1)c(NCC(O)CNC(=O)CCC(=O)O[C@@H]1O[C@@H]3O[C@@]4(C)CC[C@H]5CCC[C@@H]([C@H]1C)[C@]53OO4)c1c3ccccc3nc-1n2C (stereo partly drawn)
- IC50 [1]: 0.00148 µM
- Ratio IC50 [5]: 0.27
- IC50 [2]: 41.7 µM
- IC50 [3]: 1.22 µM
- selectivity ratio [6]: 3060
- IC50 [7]: 0.0004 µM
- selectivity ratio [4]: 826

SMILES: NCCCNc1c2ccccc2nc2c1[nH]c1ccccc12
- IC50 [1]: 0.0172 µM
- IC50 [2]: 16.8 µM
- IC50 [3]: 0.276 µM
- selectivity ratio [4]: 16

SMILES: COC(=O)c1ccc2c(c1)c(NCCCN)c1c3ccccc3nc-1n2C
- IC50 [2]: 104 µM
